Laboratory results: ChEMBL document CHEMBL5352410, “Discovery of novel selenium-containing azole derivatives as antifungal agents by exploiting the hydrophobic cleft of CYP51” (Eur J Med Chem, 2022)
Values after ≈ are worked out from the molar mass of the structure shown.

Tests used:
Type in all cases: functional
Cryptococcus neoformans = assay: Antifungal activity against Cryptococcus neoformans by CLSI based broth microdilution method
Candida parapsilosis = assay: Antifungal activity against Candida parapsilosis by CLSI based broth microdilution method; conditions: Lodderomyces parapsilosis
Pichia kudriavzevii = assay: Antifungal activity against Pichia kudriavzevii by CLSI based broth microdilution method
[Candida] zeylanoides = Antifungal activity against Candida zeylanoides by CLSI based broth microdilution method; conditions: Dujonia zeylanoides
Aspergillus fumigatus = assay: Antifungal activity against Aspergillus fumigatus by CLSI based broth microdilution method
Candida albicans [1] = assay: Antifungal activity against Candida albicans by CLSI based broth microdilution method
Candida albicans [2] = assay: Antifungal activity against Candida albicans sc5314 by CLSI based broth microdilution method
Candida albicans [3] = assay: Antifungal activity against FCZ-resistant Candida albicans 17# by CLSI based broth microdilution method
Candida albicans [4] = assay: Antifungal activity against FCZ-resistant Candida albicans 901 by CLSI based broth microdilution method
Candida albicans [5] = assay: Antifungal activity against FCZ-resistant Candida albicans 904 by CLSI based broth microdilution method
Nakaseomyces glabratus = assay: Antifungal activity against Candida glabrata by CLSI based broth microdilution method
Candida albicans [6] = assay: Antifungal activity against FCZ-resistant Candida albicans CaR by CLSI based broth microdilution method
Candida albicans [7] = assay: Antifungal activity against FCZ-resistant Candida albicans 632 by CLSI based broth microdilution method
Candida albicans [8] = assay: Fungicidal activity against Candida albicans
Candida albicans [9] = assay: Fungicidal activity against FCZ-resistant Candida albicans 17#
Candida albicans [10] = assay: Fungicidal activity against FCZ-resistant Candida albicans 904
Candida albicans [11] = assay: Fungicidal activity against FCZ-resistant Candida albicans 632
Candida albicans [12] = assay: Fungicidal activity against Candida albicans sc5314
Candida albicans [13] = assay: Fungicidal activity against FCZ-resistant Candida albicans 901
Candida albicans [14] = assay: Fungicidal activity against FCZ-resistant Candida albicans CaR

Clc1ccc(C(Cn2cncn2)[Se]C(Cn2cncn2)c2ccc(Cl)cc2Cl)c(Cl)c1 (stereo not given) was tested, and the MIC (Cryptococcus neoformans) was 4 µg/mL (≈ 7.13 µM), the MIC (Candida parapsilosis) was 64 µg/mL (≈ 114 µM) and the MIC (Pichia kudriavzevii) was 64 µg/mL (≈ 114 µM). For the same compound, the MIC ([Candida] zeylanoides) was 0.5 µg/mL (≈ 0.891 µM), the MIC (Aspergillus fumigatus) was > 64 µg/mL and the MIC (Candida albicans [1]) was 64 µg/mL (≈ 114 µM). For the same compound, the MIC (Candida albicans [2]) was 32 µg/mL (≈ 57 µM), the MIC (Candida albicans [3]) was 8 µg/mL (≈ 14.3 µM) and the MIC (Candida albicans [4]) was > 64 µg/mL. For the same compound, the MIC (Candida albicans [5]) was > 64 µg/mL, the MIC (Nakaseomyces glabratus) was 32 µg/mL (≈ 57 µM) and the MIC (Candida albicans [6]) was 32 µg/mL (≈ 57 µM). It also gave an MIC (Candida albicans [7]) of 64 µg/mL (≈ 114 µM).
For Fc1ccc(C(Cn2ccnn2)[Se][Se]C(Cn2ccnn2)c2ccc(F)cc2)cc1 (stereo not given), the MIC (Candida albicans [3]) was > 64 µg/mL, the MIC (Candida albicans [4]) was > 64 µg/mL and the MIC (Candida albicans [5]) was > 64 µg/mL. For the same compound, the MIC (Candida albicans [6]) was 32 µg/mL (≈ 59.4 µM) and the MIC (Candida albicans [7]) was > 64 µg/mL.
For c1ccc(C(Cn2ccnc2)[Se][Se]C(Cn2ccnc2)c2ccccc2)cc1 (stereo not given), the MFC (Candida albicans [8]) was 64 µg/mL (≈ 128 µM), the MFC (Candida albicans [9]) was > 64 µg/mL and the MFC (Candida albicans [10]) was 8 µg/mL (≈ 16 µM). The MFC (Candida albicans [11]) was 16 µg/mL (≈ 32 µM), the MIC (Candida albicans [3]) was > 64 µg/mL and the MIC (Candida albicans [4]) was 4 µg/mL (≈ 7.99 µM). The MFC (Candida albicans [12]) was 16 µg/mL (≈ 32 µM), the MIC (Candida albicans [5]) was 8 µg/mL (≈ 16 µM) and the MFC (Candida albicans [13]) was 8 µg/mL (≈ 16 µM). The MFC (Candida albicans [14]) was > 64 µg/mL, the MIC (Candida albicans [6]) was 2 µg/mL (≈ 4 µM) and the MIC (Candida albicans [7]) was 8 µg/mL (≈ 16 µM).
For Clc1ccc(C(Cn2cncn2)[Se]C(Cn2cncn2)c2ccc(Cl)cc2)cc1 (stereo not given), the MIC (Cryptococcus neoformans) was 4 µg/mL (≈ 8.13 µM), the MIC (Candida parapsilosis) was > 64 µg/mL and the MIC (Pichia kudriavzevii) was > 64 µg/mL. For the same compound, the MIC ([Candida] zeylanoides) was 16 µg/mL (≈ 32.5 µM), the MIC (Aspergillus fumigatus) was > 64 µg/mL and the MIC (Candida albicans [1]) was > 64 µg/mL. For the same compound, the MIC (Candida albicans [2]) was 32 µg/mL (≈ 65 µM), the MIC (Candida albicans [3]) was 8 µg/mL (≈ 16.3 µM) and the MIC (Candida albicans [4]) was 16 µg/mL (≈ 32.5 µM). For the same compound, the MIC (Candida albicans [5]) was 64 µg/mL (≈ 130 µM), the MIC (Nakaseomyces glabratus) was > 64 µg/mL and the MIC (Candida albicans [6]) was 32 µg/mL (≈ 65 µM). For the same compound, the MIC (Candida albicans [7]) was > 64 µg/mL.
With Fc1ccc(C(Cn2ccnn2)[Se]C(Cn2ccnn2)c2ccc(F)cc2)cc1 (stereo not given) the MIC (Cryptococcus neoformans) was > 64 µg/mL, the MIC (Candida parapsilosis) was > 64 µg/mL and the MIC (Pichia kudriavzevii) was 64 µg/mL (≈ 139 µM). For the same compound, the MIC ([Candida] zeylanoides) was 64 µg/mL (≈ 139 µM), the MIC (Aspergillus fumigatus) was > 64 µg/mL and the MIC (Candida albicans [1]) was > 64 µg/mL. For the same compound, the MIC (Candida albicans [2]) was > 64 µg/mL, the MIC (Candida albicans [3]) was > 64 µg/mL and the MIC (Candida albicans [4]) was > 64 µg/mL. For the same compound, the MIC (Candida albicans [5]) was > 64 µg/mL, the MIC (Nakaseomyces glabratus) was 8 µg/mL (≈ 17.4 µM) and the MIC (Candida albicans [6]) was > 64 µg/mL. The MIC (Candida albicans [7]) was > 64 µg/mL.
With Clc1ccc(C(Cn2cnnn2)[Se]C(Cn2cnnn2)c2ccc(Cl)cc2)cc1 (stereo not given) the MIC (Cryptococcus neoformans) was > 64 µg/mL, the MIC (Candida parapsilosis) was > 64 µg/mL and the MIC (Pichia kudriavzevii) was > 64 µg/mL. The MIC ([Candida] zeylanoides) was > 64 µg/mL, the MIC (Aspergillus fumigatus) was > 64 µg/mL and the MIC (Candida albicans [1]) was > 64 µg/mL. The MIC (Candida albicans [2]) was > 64 µg/mL, the MIC (Candida albicans [3]) was > 64 µg/mL and the MIC (Candida albicans [4]) was > 64 µg/mL. The MIC (Candida albicans [5]) was > 64 µg/mL, the MIC (Nakaseomyces glabratus) was > 64 µg/mL and the MIC (Candida albicans [6]) was > 64 µg/mL. For the same compound, the MIC (Candida albicans [7]) was > 64 µg/mL.
With CCC(C)n1ncn(-c2ccc(N3CCN(c4ccc(OCC5COC(Cn6cncn6)(c6ccc(Cl)cc6Cl)O5)cc4)CC3)cc2)c1=O (stereo not given) [ITRACONAZOLE] the MIC (Candida albicans [3]) was > 64 µg/mL, the MIC (Candida albicans [4]) was > 64 µg/mL and the MIC (Candida albicans [5]) was > 64 µg/mL. For the same compound, the MIC (Candida albicans [6]) was 8 µg/mL (≈ 11.3 µM) and the MIC (Candida albicans [7]) was > 64 µg/mL.
Clc1ccc(C(Cn2ccnn2)[Se][Se]C(Cn2ccnn2)c2ccc(Cl)cc2)cc1 (stereo not given) was tested, and the MIC (Candida albicans [3]) was > 64 µg/mL, the MIC (Candida albicans [4]) was > 64 µg/mL and the MIC (Candida albicans [5]) was > 64 µg/mL. For the same compound, the MIC (Candida albicans [6]) was > 64 µg/mL and the MIC (Candida albicans [7]) was > 64 µg/mL.
With Clc1ccc(C(Cn2ccnn2)[Se]C(Cn2ccnn2)c2ccc(Cl)cc2)cc1 (stereo not given) the MIC (Cryptococcus neoformans) was > 64 µg/mL, the MIC (Candida parapsilosis) was > 64 µg/mL and the MIC (Pichia kudriavzevii) was 32 µg/mL (≈ 65 µM). The MIC ([Candida] zeylanoides) was 64 µg/mL (≈ 130 µM), the MIC (Aspergillus fumigatus) was > 64 µg/mL and the MIC (Candida albicans [1]) was > 64 µg/mL. For the same compound, the MIC (Candida albicans [2]) was > 64 µg/mL, the MIC (Candida albicans [3]) was > 64 µg/mL and the MIC (Candida albicans [4]) was > 64 µg/mL. For the same compound, the MIC (Candida albicans [5]) was > 64 µg/mL, the MIC (Nakaseomyces glabratus) was 8 µg/mL (≈ 16.3 µM) and the MIC (Candida albicans [6]) was > 64 µg/mL. For the same compound, the MIC (Candida albicans [7]) was > 64 µg/mL.
With Clc1ccc(C(Cn2cnnn2)[Se][Se]C(Cn2cnnn2)c2ccc(Cl)cc2Cl)c(Cl)c1 (stereo not given) the MIC (Candida albicans [3]) was 64 µg/mL (≈ 99.7 µM), the MIC (Candida albicans [4]) was > 64 µg/mL and the MIC (Candida albicans [5]) was > 64 µg/mL. For the same compound, the MIC (Candida albicans [6]) was 64 µg/mL (≈ 99.7 µM) and the MIC (Candida albicans [7]) was > 64 µg/mL.
In the case of Fc1ccc(C(Cn2cncn2)[Se]C(Cn2cncn2)c2ccc(F)cc2F)c(F)c1 (stereo not given), the MIC (Cryptococcus neoformans) is reported as 4 µg/mL (≈ 8.08 µM), the MIC (Candida parapsilosis) is reported as > 64 µg/mL and the MIC (Pichia kudriavzevii) is reported as > 64 µg/mL. For the same compound, the MIC ([Candida] zeylanoides) was 8 µg/mL (≈ 16.2 µM), the MIC (Aspergillus fumigatus) was > 64 µg/mL and the MIC (Candida albicans [1]) was 64 µg/mL (≈ 129 µM). The MIC (Candida albicans [2]) was 4 µg/mL (≈ 8.08 µM), the MIC (Candida albicans [3]) was 8 µg/mL (≈ 16.2 µM) and the MIC (Candida albicans [4]) was 16 µg/mL (≈ 32.3 µM). The MIC (Candida albicans [5]) was 16 µg/mL (≈ 32.3 µM), the MIC (Nakaseomyces glabratus) was > 64 µg/mL and the MIC (Candida albicans [6]) was 32 µg/mL (≈ 64.6 µM). The MIC (Candida albicans [7]) was 32 µg/mL (≈ 64.6 µM).
c1ccc(C(Cn2ccnc2)[Se]C(Cn2ccnc2)c2ccccc2)cc1 (stereo not given) showed an MFC (Candida albicans [8]) of 64 µg/mL (≈ 152 µM), an MIC (Cryptococcus neoformans) of 64 µg/mL (≈ 152 µM) and an MIC (Candida parapsilosis) of 4 µg/mL (≈ 9.49 µM). For the same compound, the MFC (Candida albicans [9]) was > 64 µg/mL, the MIC (Pichia kudriavzevii) was 16 µg/mL (≈ 38 µM) and the MFC (Candida albicans [10]) was 8 µg/mL (≈ 19 µM). For the same compound, the MIC ([Candida] zeylanoides) was 4 µg/mL (≈ 9.49 µM), the MIC (Aspergillus fumigatus) was > 64 µg/mL and the MFC (Candida albicans [11]) was 16 µg/mL (≈ 38 µM). The MIC (Candida albicans [1]) was 8 µg/mL (≈ 19 µM), the MIC (Candida albicans [2]) was 4 µg/mL (≈ 9.49 µM) and the MIC (Candida albicans [3]) was 0.5 µg/mL (≈ 1.19 µM). The MIC (Candida albicans [4]) was 8 µg/mL (≈ 19 µM), the MFC (Candida albicans [12]) was 8 µg/mL (≈ 19 µM) and the MIC (Candida albicans [5]) was 4 µg/mL (≈ 9.49 µM). The MIC (Nakaseomyces glabratus) was 16 µg/mL (≈ 38 µM), the MFC (Candida albicans [13]) was 16 µg/mL (≈ 38 µM) and the MFC (Candida albicans [14]) was > 64 µg/mL. The MIC (Candida albicans [6]) was 4 µg/mL (≈ 9.49 µM) and the MIC (Candida albicans [7]) was 8 µg/mL (≈ 19 µM).
In the case of Fc1ccc(C(Cn2ccnn2)[Se][Se]C(Cn2ccnn2)c2ccc(F)cc2F)c(F)c1 (stereo not given), the MIC (Candida albicans [3]) is reported as 16 µg/mL (≈ 27.9 µM), the MIC (Candida albicans [4]) is reported as > 64 µg/mL and the MIC (Candida albicans [5]) is reported as > 64 µg/mL. For the same compound, the MIC (Candida albicans [6]) was 4 µg/mL (≈ 6.96 µM) and the MIC (Candida albicans [7]) was > 64 µg/mL.
Clc1ccc(C(Cn2cncn2)[Se][Se]C(Cn2cncn2)c2ccc(Cl)cc2)cc1 (stereo not given) was tested, and the MIC (Candida albicans [3]) was 64 µg/mL (≈ 112 µM), the MIC (Candida albicans [4]) was 16 µg/mL (≈ 28 µM) and the MIC (Candida albicans [5]) was 16 µg/mL (≈ 28 µM). The MIC (Candida albicans [6]) was 4 µg/mL (≈ 7 µM) and the MIC (Candida albicans [7]) was > 64 µg/mL.
